| Compound | melting point [°C] |
| --- | --- |
| Cc1nc(-n2cnn(Cc3ccc(F)cc3)c2=O)sc1C(N)=O [Example 1, 2-(1-(4-fluorobenzyl)-5-oxo-1H-1,2,4-triazol-4(5H)-yl)-4-methylthiazole-5-carboxamide] | 232 to 233 |
| Cc1nc(-n2cnn(CC3CC3)c2=O)sc1C(N)=O [Example 1.1, 2-[1-(cyclopropylmethyl)-5-oxo-1H-1,2,4-triazol-4(5H)-yl]-4-methylthiazole-5-carboxamide] | 180 to 181 |
| Cc1nc(N2CCN(Cc3ccc(C(F)(F)F)cc3)C2=O)sc1C(N)=O [Example 1.2, 4-methyl-2-{2-oxo-3-[4-(trifluoromethyl)benzyl]imidazolidin-1-yl}thiazole-5-carboxamide] | 216 to 217 |
| Cc1nc(N2C[C@H](C)N(Cc3ccc(F)cc3)C2=O)sc1C(N)=O [Example 1.3, (S)-2-(3-(4-fluorobenzyl)-4-methyl-2-oxoimidazolidin-1-yl)-4-methylthiazole-5-carboxamide] | 192 to 194 |
| Cc1nc(N2CCN(CC3CC3)C2=O)sc1C(N)=O [Example 1.5, 2-(3-(cyclopropylmethyl)-2-oxoimidazolidin-1-yl)-4-methylthiazole-5-carboxamide] | 198 to 200 |
| Cc1nc(N2CCN(CC(C)C)C2=O)sc1C(N)=O [Example 1.6, 2-(3-isobutyl-2-oxoimidazolidin-1-yl)-4-methylthiazole-5-carboxamide] | 212 to 215 |
| Cc1nc(N2CCN(Cc3ccc(F)c(F)c3)C2=O)sc1C(N)=O [Example 1.7, 2-(3-(3,4-difluorobenzyl)-2-oxoimidazolidin-1-yl)-4-methylthiazole-5-carboxamide] | 221 to 223 |
| Cc1nc(N2CCN(Cc3cc(F)cc(F)c3)C2=O)sc1C(N)=O [Example 1.8, 2-(3-(3,5-difluorobenzyl)-2-oxoimidazolidin-1-yl)-4-methylthiazole-5-carboxamide] | > 200 |
| Cc1nc(N2CCN(Cc3ccc(OC(F)(F)F)cc3)C2=O)sc1C(N)=O [Example 1.9, 4-methyl-2-(2-oxo-3-(4-(trifluoromethoxy)benzyl)imidazolidin-1-yl)thiazole-5-carboxamide] | 185 to 187 |
| Cc1nc(N2CCN(Cc3ccc(C(F)(F)F)nc3)C2=O)sc1C(N)=O [Example 1.10, 4-methyl-2-(2-oxo-3-((6-(trifluoromethyl)pyridine-3-yl)methyl)imidazolidin-1-yl)thiazole-5-carboxamide] | 225 to 228 |
| COc1ccc(CN2CCN(c3nc(C)c(C(N)=O)s3)C2=O)cc1F [Example 1.11, 2-(3-(3-fluoro-4-methoxybenzyl)-2-oxoimidazolidin-1-yl)-4-methylthiazole-5-carboxamide] | 182 to 184 |
| Cc1nc(N2C(=O)N(Cc3ccc(F)cc3)C[C@@H]2C)sc1C(N)=O [Example 1.12, (S)-2-(3-(4-fluorobenzyl)-5-methyl-2-oxoimidazolidin-1-yl)-4-methylthiazole-5-carboxamide] | 197 to 198 |
| Cc1nc(N2CCN(Cc3ccc(Cl)cc3)C2=O)sc1C(N)=O [Example 1.13, 2-(3-(4-chlorobenzyl)-2-oxoimidazolidin-1-yl)-4-methylthiazole-5-carboxamide] | > 200 |
| Cc1nc(N2C[C@@H](C)N(Cc3cc(F)cc(F)c3)C2=O)sc1C(N)=O [Example 1.14, (R)-2-(3-(3,5-difluorobenzyl)-4-methyl-2-oxoimidazolidin-1-yl)-4-methylthiazole-5-carboxamide] | 212 to 213 |
| Cc1nc(N2C[C@@H](C)N(Cc3ccc(F)cc3)C2=O)sc1C(N)=O [Example 1.15, (R)-2-(3-(4-fluorobenzyl)-4-methyl-2-oxoimidazolidin-1-yl)-4-methylthiazole-5-carboxamide] | 185 to 186 |
| Cc1nc(N2C[C@@H](C)N(Cc3ccc(C(F)(F)F)cc3)C2=O)sc1C(N)=O [Example 1.16, (R)-4-methyl-2-(4-methyl-2-oxo-3-(4-(trifluoromethyl)benzyl)imidazolidin-1-yl)thiazole-5-carboxamide] | 110 to 112 |
| Cc1nc(N2C[C@H](C)N(Cc3ccc(F)cc3)C2=O)sc1C(=O)NCc1cccnc1 [Example 2, (S)-2-(3-(4-Fluorobenzyl)-4-methyl-2-oxoimidazolidin-1-yl)-4-methyl-N-(pyridin-3-ylmethyl)thiazole-5-carboxamide] | 67 to 70 |

More lines, now with the values ahead:

| melting point [°C] | Compound |
| --- | --- |
| 62 to 65 | Cc1nc(N2C[C@H](C)N(Cc3ccc(F)cc3)C2=O)sc1C(=O)NCc1ccc(F)c(F)c1 [Example 2.1, (S)-N-(3,4-difluorobenzyl)-2-(3-(4-fluorobenzyl)-4-methyl-2-oxoimidazolidin-1-yl)-4-methylthiazole-5-carboxamide] |
| 225 to 226 | Cc1cc(CNC(=O)c2sc(N3CCN(Cc4ccc(F)cc4)C3=O)nc2C)[nH]n1 [Example 2.2, 2-(3-(4-fluorobenzyl)-2-oxoimidazolidin-1-yl)-4-methyl-N-((3-methyl-1H-pyrazol-5-yl)methyl)thiazole-5-carboxamide] |
| 234 to 235 | Cc1cc(CNC(=O)c2sc(-n3cnn(Cc4ccc(F)cc4)c3=O)nc2C)[nH]n1 [Example 2.3, 2-(1-(4-Fluorobenzyl)-5-oxo-1H-1,2,4-triazol-4(5H)-yl)-4-methyl-N-((3-methyl-1H-pyrazol-5-yl)methyl)thiazole-5-carboxamide] |
| 144 to 145 | C=CCCN1CCN(c2nc(C)c(C(=O)NCc3cccnc3)s2)C1=O [Example 2.4, 2-(3-(but-3-enyl)-2-oxoimidazolidin-1-yl)-4-methyl-N-(pyridin-3-ylmethyl)thiazole-5-carboxamide] |
| 118 to 119 | Cc1nc(N2C[C@@H](C)N(Cc3ccc(F)cc3)C2=O)sc1C(=O)NCc1ccccn1 [Example 2.5, (R)-2-(3-(4-fluorobenzyl)-4-methyl-2-oxoimidazolidin-1-yl)-4-methyl-N-(pyridin-2-ylmethyl)thiazole-5-carboxamide] |
| 134 to 135 | Cc1nc(N2C[C@@H](C)N(Cc3ccc(F)cc3)C2=O)sc1C(=O)NCc1ccc(F)c(F)c1 [Example 2.6, (R)-N-(3,4-difluorobenzyl)-2-(3-(4-fluorobenzyl)-4-methyl-2-oxoimidazolidin-1-yl)-4-methylthiazole-5-carboxamide] |
| 66 to 69 | Cc1nc(N2C[C@@H](C)N(Cc3ccc(F)cc3)C2=O)sc1C(=O)NCc1cncs1 [Example 2.8, (R)-2-(3-(4-fluorobenzyl)-4-methyl-2-oxoimidazolidin-1-yl)-4-methyl-N-(thiazol-5-ylmethyl)thiazole-5-carboxamide] |
| 215 to 216 | Cc1cc(CNC(=O)c2sc(N3C[C@@H](C)N(Cc4ccc(F)cc4)C3=O)nc2C)[nH]n1 [Example 2.9, (R)-2-(3-(4-fluorobenzyl)-4-methyl-2-oxoimidazolidin-1-yl)-4-methyl-N-((3-methyl-1H-pyrazol-5-yl)methyl)thiazole-5-carboxamide] |
| 159 to 160 | Cc1nc(N2C[C@@H](C)N(Cc3ccc(F)cc3)C2=O)sc1C(=O)NCc1cc(F)cc(F)c1 [Example 2.10, (R)-N-(3,5-difluorobenzyl)-2-(3-(4-fluorobenzyl)-4-methyl-2-oxoimidazolidin-1-yl)-4-methylthiazole-5-carboxamide] |
| 139 to 140 | Cc1cc(CNC(=O)c2sc(N3C[C@@H](C)N(Cc4ccc(F)cc4)C3=O)nc2C)no1 [Example 2.11, (R)-2-(3-(4-fluorobenzyl)-4-methyl-2-oxoimidazolidin-1-yl)-4-methyl-N-((5-methylisoxazol-3-yl)methyl)thiazole-5-carboxamide] |
| 147 to 148 | Cc1nc(N2C[C@@H](C)N(Cc3cc(F)cc(F)c3)C2=O)sc1C(=O)NCc1ccccn1 [Example 2.12, (R)-2-(3-(3,5-difluorobenzyl)-4-methyl-2-oxoimidazolidin-1-yl)-4-methyl-N-(pyridin-2-ylmethyl)thiazole-5-carboxamide] |
| 131 to 132 | Cc1cnc(CNC(=O)c2sc(N3C[C@@H](C)N(Cc4cc(F)cc(F)c4)C3=O)nc2C)cn1 [Example 2.13, (R)-2-(3-(3,5-difluorobenzyl)-4-methyl-2-oxoimidazolidin-1-yl)-4-methyl-N-((5-methylpyrazin-2-yl)methyl)thiazole-5-carboxamide] |
| 63 to 66 | Cc1cc(CNC(=O)c2sc(N3C[C@@H](C)N(Cc4cc(F)cc(F)c4)C3=O)nc2C)no1 [Example 2.14, (R)-2-(3-(3,5-difluorobenzyl)-4-methyl-2-oxoimidazolidin-1-yl)-4-methyl-N-((5-methylisoxazol-3-yl)methyl)thiazole-5-carboxamide] |
| 112 to 113 | Cc1nc(N2C(=O)N(Cc3ccc(F)cc3)C[C@@H]2C)sc1C(=O)NCc1ccccn1 [Example 2.15, (S)-2-(3-(4-fluorobenzyl)-5-methyl-2-oxoimidazolidin-1-yl)-4-methyl-N-(pyridin-2-ylmethyl)thiazole-5-carboxamide] |
| 176 to 177 | Cc1nc(N2C(=O)N(Cc3ccc(F)cc3)C[C@@H]2C)sc1C(=O)NCc1cnn(C)c1 [Example 2.16, (S)-2-(3-(4-fluorobenzyl)-5-methyl-2-oxoimidazolidin-1-yl)-4-methyl-N-((1-methyl-1H-pyrazol-4-yl)methyl)thiazole-5-carboxamide] |
| 174 to 175 | Cc1cc(CNC(=O)c2sc(N3C(=O)N(Cc4ccc(F)cc4)C[C@@H]3C)nc2C)no1 [Example 2.17, (S)-2-(3-(4-fluorobenzyl)-5-methyl-2-oxoimidazolidin-1-yl)-4-methyl-N-((5-methylisoxazol-3-yl)methyl)thiazole-5-carboxamide] |
| 55 to 57 | Cc1nc(N2C(=O)N(Cc3ccc(F)cc3)C[C@H]2C)sc1C(=O)NCc1ccccn1 [Example 2.18, (R)-2-(3-(4-fluorobenzyl)-5-methyl-2-oxoimidazolidin-1-yl)-4-methyl-N-(pyridin-2-ylmethyl)thiazole-5-carboxamide] |
| 70 to 73 | Cc1nc(N2C(=O)N(Cc3ccc(F)cc3)C[C@H]2C)sc1C(=O)NCc1cncs1 [Example 2.19, (R)-2-(3-(4-fluorobenzyl)-5-methyl-2-oxoimidazolidin-1-yl)-4-methyl-N-(thiazol-5-ylmethyl)thiazole-5-carboxamide] |
